Key:
[1] = Antioxidant activity assessed as superoxide dismutase-like activity by measuring inhibition of superoxide radical anion production at 2 uM by NBT reduction assay relative to control; assay type: functional
Escherichia coli = assay: Induction of Escherichia coli genomic DNA cleavage after 1 hr by agarose gel electrophoresis method
OVCAR-3 = assay: Growth inhibition of human OVCAR3 cells incubated for 48 hrs by sulforhodamine B assay; assay type: functional; details: OVCAR-3, 48 h
RPMI-8226 = assay: Growth inhibition of human RPMI8226 cells incubated for 48 hrs by sulforhodamine B assay; assay type: functional; details: RPMI-8226, 48 h
Homo sapiens = organism: Homo sapiens; assay: Inhibition of PTK in human MCF7 cells at 1 uM preincubated for 2 hrs followed by poly-Glu-Tyr substrate addition by ELISA relative to control; assay type: cell-based
HOP-92 = assay: Growth inhibition of human HOP92 cells incubated for 48 hrs by sulforhodamine B assay; assay type: functional; details: HOP-92, 48 h
UACC-62 = assay: Growth inhibition of human UACC62 cells incubated for 48 hrs by sulforhodamine B assay; assay type: functional; details: UACC-62, 48 h
SW-620 = assay: Growth inhibition of human SW620 cells incubated for 48 hrs by sulforhodamine B assay; assay type: functional; details: SW-620, 48 h
OVCAR-8 = assay: Growth inhibition of human OVCAR8 cells incubated for 48 hrs by sulforhodamine B assay; assay type: functional; details: OVCAR-8, 48 h
UACC-257 = assay: Growth inhibition of human UACC257 cells incubated for 48 hrs by sulforhodamine B assay; assay type: functional; details: UACC-257, 48 h
SK-MEL-2 = assay: Growth inhibition of human SK-MEL-2 cells incubated for 48 hrs by sulforhodamine B assay; assay type: functional; details: SK-MEL-2, 48 h
SK-OV-3 = assay: Growth inhibition of human SKOV3 cells incubated for 48 hrs by sulforhodamine B assay; assay type: functional; details: SK-OV-3, 48 h
CAKI-1 = assay: Growth inhibition of human Caki1 cells incubated for 48 hrs by sulforhodamine B assay; assay type: functional; details: CAKI-1, 48 h
TK-10 = assay: Growth inhibition of human TK10 cells incubated for 48 hrs by sulforhodamine B assay; assay type: functional; details: TK-10, 48 h
MDA-MB-468 = assay: Growth inhibition of human MDA-MB-468 cells incubated for 48 hrs by sulforhodamine B assay; assay type: functional; details: MDA-MB-468, 48 h
U-251 = assay: Growth inhibition of human U251 cells incubated for 48 hrs by sulforhodamine B assay; assay type: functional; details: U-251, 48 h
NCI-H522 = assay: Growth inhibition of human NCI-H522 cells incubated for 48 hrs by sulforhodamine B assay; assay type: functional; details: NCI-H522, 48 h
[2] = Growth inhibition of human NCI60 cells at 10 uM after 48 hrs by SRB assay relative to control; values are per cent of control; details: NCI60, 48 h
HT-29 = assay: Growth inhibition of human HT-29 cells incubated for 48 hrs by sulforhodamine B assay; assay type: functional; details: HT-29, 48 h
WISH = assay: Cytotoxicity against human WISH cells assessed as reduction in cell viability after 24 hrs by MTT assay; assay type: cell-based
SF-539 = assay: Growth inhibition of human SF539 cells incubated for 48 hrs by sulforhodamine B assay; assay type: functional; details: SF-539, 48 h
SF-295 = assay: Growth inhibition of human SF295 cells incubated for 48 hrs by sulforhodamine B assay; assay type: functional; details: SF-295, 48 h
A549 = assay: Growth inhibition of human A549/ATCC cells incubated for 48 hrs by sulforhodamine B assay; assay type: functional; details: A549, 48 h
NCI-H226 = assay: Growth inhibition of human NCI-H226 cells incubated for 48 hrs by sulforhodamine B assay; assay type: functional; details: NCI-H226, 48 h
786-0 = assay: Growth inhibition of human 786-O cells incubated for 48 hrs by sulforhodamine B assay; assay type: functional; details: 786-0, 48 h
SK-MEL-28 = assay: Growth inhibition of human SK-MEL-28 cells incubated for 48 hrs by sulforhodamine B assay; assay type: functional; details: SK-MEL-28, 48 h
RXF 393 = assay: Growth inhibition of human RXF393 cells incubated for 48 hrs by sulforhodamine B assay; assay type: functional; details: RXF 393, 48 h
SNB-75 = assay: Growth inhibition of human SNB75 cells incubated for 48 hrs by sulforhodamine B assay; assay type: functional; details: SNB-75, 48 h
Hs-578T = assay: Growth inhibition of human Hs 578T cells incubated for 48 hrs by sulforhodamine B assay; assay type: functional
NCI/ADR-RES = assay: Growth inhibition of human NCI/ADR-RES cells incubated for 48 hrs by sulforhodamine B assay; assay type: functional
MDA-MB-231 = assay: Growth inhibition of human MDA-MB-231 cells incubated for 48 hrs by sulforhodamine B assay; assay type: functional; details: MDA-MB-231, 48 h
WI-38 = assay: Cytotoxicity against human WI38 cells assessed as reduction in cell viability after 24 hrs by MTT assay; assay type: cell-based; details: WI-38, 24 h
T47D = assay: Growth inhibition of human T47D cells incubated for 48 hrs by sulforhodamine B assay; assay type: functional
COLO 205 = assay: Growth inhibition of human COLO205 cells incubated for 48 hrs by sulforhodamine B assay; assay type: functional; details: COLO 205, 48 h
UO-31 = assay: Growth inhibition of human UO31 cells incubated for 48 hrs by sulforhodamine B assay; assay type: functional; details: UO-31, 48 h
SK-MEL-5 = assay: Growth inhibition of human SK-MEL-5 cells incubated for 48 hrs by sulforhodamine B assay; assay type: functional; details: SK-MEL-5, 48 h
KM12 = assay: Growth inhibition of human KM12 cells incubated for 48 hrs by sulforhodamine B assay; assay type: functional; details: KM12, 48 h
NCI-H460 = assay: Growth inhibition of human NCI-H460 cells incubated for 48 hrs by sulforhodamine B assay; assay type: functional; details: NCI-H460, 48 h
MCF7 = assay: Growth inhibition of human MCF7 cells incubated for 48 hrs by sulforhodamine B assay; assay type: functional; details: MCF7, 48 h
LOX IMVI = assay: Growth inhibition of human LOXIMVI cells incubated for 48 hrs by sulforhodamine B assay; assay type: functional
CCRF-CEM = assay: Growth inhibition of human CCRF-CEM cells incubated for 48 hrs by sulforhodamine B assay; assay type: functional
M14 = assay: Growth inhibition of human M14 cells incubated for 48 hrs by sulforhodamine B assay; assay type: functional; details: M14, 48 h
HCT-15 = assay: Growth inhibition of human HCT15 cells incubated for 48 hrs by sulforhodamine B assay; assay type: functional; details: HCT-15, 48 h
NCI-H322M = assay: Growth inhibition of human NCI-H322M cells incubated for 48 hrs by sulforhodamine B assay; assay type: functional
HCC 2998 = assay: Growth inhibition of human HCC2998 cells incubated for 48 hrs by sulforhodamine B assay; assay type: functional; details: HCC 2998, 48 h
OVCAR-5 = assay: Growth inhibition of human OVCAR5 cells incubated for 48 hrs by sulforhodamine B assay; assay type: functional; details: OVCAR-5, 48 h
SN12C = assay: Growth inhibition of human SN12C cells incubated for 48 hrs by sulforhodamine B assay; assay type: functional
BT-549 = assay: Growth inhibition of human BT549 cells incubated for 48 hrs by sulforhodamine B assay; assay type: functional; details: BT-549, 48 h
NCI-H23 = assay: Growth inhibition of human NCI-H23 cells incubated for 48 hrs by sulforhodamine B assay; assay type: functional; details: NCI-H23, 48 h
Malme-3M = assay: Growth inhibition of human MALME-3M cells incubated for 48 hrs by sulforhodamine B assay; assay type: functional
A498 = assay: Growth inhibition of human A498 cells incubated for 48 hrs by sulforhodamine B assay; assay type: functional; details: A498, 48 h
OVCAR-4 = assay: Growth inhibition of human OVCAR4 cells incubated for 48 hrs by sulforhodamine B assay; assay type: functional; details: OVCAR-4, 48 h
ACHN = assay: Growth inhibition of human ACHN cells incubated for 48 hrs by sulforhodamine B assay; assay type: functional
MDA-MB-435 = assay: Growth inhibition of human MDA-MB-435 cells incubated for 48 hrs by sulforhodamine B assay; assay type: functional; details: MDA-MB-435, 48 h
DU-145 = assay: Growth inhibition of human DU145 cells incubated for 48 hrs by sulforhodamine B assay; assay type: functional; details: DU-145, 48 h
HCT-116 = assay: Growth inhibition of human HCT116 cells incubated for 48 hrs by sulforhodamine B assay; assay type: functional; details: HCT-116, 48 h
SF-268 = assay: Growth inhibition of human SF268 cells incubated for 48 hrs by sulforhodamine B assay; assay type: functional; details: SF-268, 48 h
SNB-19 = assay: Growth inhibition of human SNB19 cells incubated for 48 hrs by sulforhodamine B assay; assay type: functional; details: SNB-19, 48 h
PC-3 = assay: Growth inhibition of human PC3 cells incubated for 48 hrs by sulforhodamine B assay; assay type: functional; details: PC-3, 48 h

COc1ccc(-c2ccc(-c3ccc(C#N)c(F)c3)s2)cc1
inhibition [1]: 35%

N#Cc1ccc(-c2ccc(-c3ccccc3)s2)cc1F
inhibition [1]: 37.9%

CN(C)c1ccc(-c2ccc(-c3ccc(C(=N)N)cc3)s2)cc1
inhibition [1]: 58%
Activity (Escherichia coli): Dose-dependent effect

CN(C)c1ccc(-c2ccc(-c3ccc(C(=N)N)c(F)c3)s2)cc1
inhibition [1]: 56.7%
Activity (Escherichia coli): Dose-dependent effect

COc1ccc(-c2ccc(-c3ccc(C(=N)N)cc3)s2)cc1
GI50 (OVCAR-3): 1730 nM
GI50 (RPMI-8226): 282 nM
inhibition (Homo sapiens): 19 to 36%
GI50 (HOP-92): 750 nM
GI50 (UACC-62): 1410 nM
GI50 (SW-620): 211 nM
inhibition [1]: 59.2%
GI50 (OVCAR-8): 321 nM
GI50 (UACC-257): 2070 nM
GI50 (SK-MEL-2): 2300 nM
GI50 (SK-OV-3): 1960 nM
GI50 (CAKI-1): 1500 nM
GI50 (TK-10): 1970 nM
GI50 (MDA-MB-468): 192 nM
GI50 (U-251): 232 nM
GI50 (NCI-H522): 251 nM
growth percent at 10 µM [2]: -70.7%
GI50 (HT-29): 196 nM
IC50 (WISH): 180000 nM
GI50 (SF-539): 160 nM
GI50 (SF-295): 1270 nM
GI50 (A549): 226 nM
GI50 (NCI-H226): 2140 nM
GI50 (786-0): 184 nM
GI50 (SK-MEL-28): 1550 nM
GI50 (RXF 393): 1000 nM
GI50 (SNB-75): 1710 nM
GI50 (Hs-578T): 2140 nM
GI50 (NCI/ADR-RES): 1490 nM
GI50 (MDA-MB-231): 267 nM
IC50 (WI-38): 192000 nM
GI50 (T47D): 300 nM
GI50 (COLO 205): 224 nM
GI50 (UO-31): 1670 nM
GI50 (SK-MEL-5): 1390 nM
GI50 (KM12): 339 nM
GI50 (NCI-H460): 204 nM
GI50 (MCF7): 175 nM
GI50 (LOX IMVI): 198 nM
GI50 (CCRF-CEM): 231 nM
GI50 (M14): 1410 nM
GI50 (HCT-15): 183 nM
GI50 (NCI-H322M): 1240 nM
GI50 (HCC 2998): 1330 nM
GI50 (OVCAR-5): 180 nM
GI50 (SN12C): 189 nM
GI50 (BT-549): 1650 nM
GI50 (NCI-H23): 665 nM
GI50 (Malme-3M): 2170 nM
GI50 (A498): 1740 nM
GI50 (OVCAR-4): 1580 nM
GI50 (ACHN): 359 nM
GI50 (MDA-MB-435): 924 nM
GI50 (DU-145): 201 nM
GI50 (HCT-116): 186 nM
GI50 (SF-268): 1740 nM
Activity (Escherichia coli): Dose-dependent effect
GI50 (SNB-19): 811 nM
GI50 (PC-3): 773 nM

From ChEMBL document CHEMBL4007388, “Synthesis and antiproliferative activity of monocationic arylthiophene derivatives” (Eur J Med Chem, 2017)
